Results from patent US4036834A, “Derivatives of 7-(α-hydroxy-substituted pyridyl carboxamido-α p h Δ^3 -cephem-4-carboxylic acid” (Yamanouchi Pharmaceutical Co., Ltd., priority 1974, dated 1977).
In brackets after ≈: the same amount, converted by molar mass. Like-named read-outs stand apart in the source and are kept apart here.

What was measured:
[1] = system: Staphylococcus Onuma; test: MIC against Staphylococcus Onuma; format: cell-based
Excerpt: (§1) Now, for illustrating the excellent pharmacological effects of the compounds of this invention, the values of MIC (γ/ml) of the compounds against various bacteria are shown in the following table, the compounds of this invention are shown by example numbers.

[2] = system: escherichia coli Kauffman 0-1; test: MIC against escherichia coli Kauffman 0-1; format: cell-based
Excerpt: as §1
7: escherichia coli Kauffman 0-1

[3] = system: pseudomonas aeruginosa 99 (Gentamycin resistant); test: MIC against pseudomonas aeruginosa 99 (Gentamycin resistant); format: cell-based
Excerpt: as §1
5: pseudomonas aeruginosa 99 (Gentamycin resistant)

[4] = system: Shigella flexnori 2a 1675; test: MIC against Shigella flexnori 2a 1675; format: cell-based; conditions: 2A1675
Excerpt: as §1

[5] = system: staphylococcus aureus 209P; test: MIC against staphylococcus aureus 209P; format: cell-based
Excerpt: as §1
16: staphylococcus aureus 209P

[6] = system: Shigella sonnei II 37148; test: MIC against Shigella sonnei II 37148; format: cell-based; conditions: II37148
Excerpt: as §1

[7] = system: Klebsiella pneumoniae ATCC 10031; test: MIC against Klebsiella pneumoniae ATCC 10031; format: cell-based; conditions: ATCC10031
Excerpt: as §1
8: Klebsiella pneumoniae ATCC 10031

[8] = system: pseudomonas aeruginosa ATCC 8689; test: MIC against pseudomonas aeruginosa ATCC 8689; format: cell-based; conditions: ATCC8689
Excerpt: as §1
4: pseudomonas aeruginosa ATCC 8689

[9] = system: staphylococcus Shimanishi; test: MIC against staphylococcus Shimanishi; format: cell-based
Excerpt: as §1
17. staphylococcus Shimanishi

[10] = system: Bacillus subtilis ATCC 6633; test: MIC against Bacillus subtilis ATCC 6633; format: cell-based; conditions: ATCC6633
Excerpt: as §1
14: Bacillus subtilis ATCC 6633

[11] = system: proteus vulgaris OX 19US; test: MIC against proteus vulgaris OX 19US; format: cell-based; conditions: OX19US
Excerpt: as §1
2. proteus vulgaris OX 19US

[12] = system: salmonella typhi H901W; test: microbe, parasite or virus in culture; format: cell-based; conditions: Salmonella enterica
[13] = system: salmonella enteritidis; test: MIC against salmonella enteritidis; format: cell-based; conditions: Salmonella enterica
Excerpt: as §1
10: salmonella enteritidis

[14] = system: Pseudomonas ovalis IAM 1002; test: MIC against Pseudomonas ovalis IAM 1002; format: cell-based; conditions: Pseudomonas putida, IAM1002
Excerpt: as §1
6: Pseudomonas ovalis IAM 1002

[15] = system: proteus mirabilis IFM OM-19; test: MIC against proteus mirabilis IFM OM-19; format: cell-based; conditions: IFMOM19
Excerpt: as §1
3. proteus mirabilis IFM OM-19

[16] = system: bacillus megatherium 10778; test: MIC against bacillus megatherium 10778; format: cell-based
Excerpt: as §1

[17] = system: Proteus vulgaris OXK US; test: MIC against Proteus vulgaris OXK US; format: cell-based
Excerpt: as §1
1: Proteus vulgaris OXK US

[18] = system: micrococcus flavus ATCC 10240; test: MIC against micrococcus flavus ATCC 10240; format: cell-based; conditions: ATCC10240
Excerpt: as §1

[19] = water solubility, naked-eye observation of solutions; format: physicochemical
Excerpt: Then, the experimental results showing the excellent water solubility of the compounds of this invention are illustrated in the following table, the results being the observation results by the naked eyes of the solutions thereof in each concentration as shown in the table.

[20] = escherichia coli Kauffman 0-1, read-out: MIC
[21] = Pseudomonas ovalis IAM 1002, read-out: MIC
[22] = pseudomonas aeruginosa 99 (Gentamycin resistant), read-out: MIC
[23] = bacillus megatherium 10778, read-out: MIC
[24] = Proteus vulgaris OXK US, read-out: MIC
[25] = Klebsiella pneumoniae ATCC 10031, read-out: MIC
[26] = pseudomonas aeruginosa ATCC 8689, read-out: MIC
[27] = micrococcus flavus ATCC 10240, read-out: MIC
[28] = Bacillus subtilis ATCC 6633, read-out: MIC
[29] = Staphylococcus Onuma, read-out: MIC
[30] = staphylococcus Shimanishi, read-out: MIC
[31] = proteus vulgaris OX 19US, read-out: MIC
[32] = salmonella enteritidis, read-out: MIC

SMILES | MIC ([1]; Staphylococcus) | MIC ([3]; Pseudomonas aeruginosa) | MIC [4] | MIC [5] | MIC [6] | MIC ([7]; Klebsiella pneumoniae) | MIC [12] | MIC [2, 20] | MIC [14, 21] | MIC [15] | MIC [3, 22] | MIC [16, 23] | MIC [17, 24] | MIC [7, 25] | MIC [8, 26] | MIC [18, 27] | MIC [10, 28] | MIC [9, 30] | MIC [11, 31] | MIC [13, 32] | also measured
CC(=O)OCC1=C(C(=O)O)N2C(=O)[C@@H](NC(=O)Cc3cccs3)[C@H]2SC1 [Cephalothin, reference compound] | 0.39 µg/mL (≈ 0.984 µM) | > 100 µg/mL | 6.25 µg/mL (≈ 15.8 µM) | 0.19 µg/mL (≈ 0.479 µM) | 6.25 µg/mL (≈ 15.8 µM) | 0.78 µg/mL (≈ 1.97 µM) | 1.56 µg/mL (≈ 3.93 µM) | – | – | – | – | – | – | – | – | – | – | – | – | – | MIC ([2]; Escherichia coli): 3.13 µg/mL (≈ 7.9 µM); MIC ([8]; Pseudomonas aeruginosa): > 100 µg/mL; MIC ([9]; Staphylococcus): 0.39 µg/mL (≈ 0.984 µM); MIC ([10]; Bacillus subtilis): < 0.09 µg/mL; MIC ([11]; Proteus vulgaris): 12.5 µg/mL (≈ 31.5 µM); MIC ([13]; ENTERITIDIS): 0.39 µg/mL (≈ 0.984 µM)
Cc1nnc(SCC2=C(C(=O)O)N3C(=O)C(NC(=O)C(NC(=O)c4cccnc4)c4ccccc4)C3SC2)s1 (stereo not shown) [Example C-2, reference compound] | – | – | 50 µg/mL (≈ 85.8 µM) | – | 100 µg/mL (≈ 172 µM) | – | > 100 µg/mL | 100 µg/mL (≈ 172 µM) | > 100 µg/mL | 25 µg/mL (≈ 42.9 µM) | > 100 µg/mL | 3.13 µg/mL (≈ 5.37 µM) | 6.25 µg/mL (≈ 10.7 µM) | 12.5 µg/mL (≈ 21.5 µM) | > 100 µg/mL | 1.56 µg/mL (≈ 2.68 µM) | 1.56 µg/mL (≈ 2.68 µM) | – | – | – | –
CC1=C(C(=O)O)N2C(=O)[C@@H](NC(=O)[C@H](N)c3ccccc3)[C@H]2SC1 [Cephalexin, reference compound] | 12.5 µg/mL (≈ 36 µM) | – | 6.25 µg/mL (≈ 18 µM) | 1.56 µg/mL (≈ 4.49 µM) | 6.25 µg/mL (≈ 18 µM) | 3 µg/mL (≈ 8.64 µM) | 6.25 µg/mL (≈ 18 µM) | – | – | – | – | – | – | – | – | – | – | – | – | – | MIC ([2]; Escherichia coli): 10 µg/mL (≈ 28.8 µM); MIC ([16]; Bacillus, 10778): 0.78 µg/mL (≈ 2.25 µM); MIC ([17]; Proteus vulgaris): 30 µg/mL (≈ 86.4 µM); MIC ([8]; Pseudomonas aeruginosa): > 100 µg/mL; MIC ([18]; Micrococcus flavus): 1.56 µg/mL (≈ 4.49 µM); MIC ([9]; Staphylococcus): 6.25 µg/mL (≈ 18 µM); MIC ([10]; Bacillus subtilis): 0.78 µg/mL (≈ 2.25 µM); MIC ([11]; Proteus vulgaris): 30 µg/mL (≈ 86.4 µM); MIC ([13]; ENTERITIDIS): 6.25 µg/mL (≈ 18 µM)
Cn1nnnc1SCC1=C(C(=O)O)N2C(=O)C(NC(=O)C(NC(=O)c3cccnc3)c3ccccc3)C2SC1 (stereo not drawn) [Example C-1, 7-(α-nicotinoylamido-α-phenylacetamido)-3-(1-methyl-1H-tetrazle-5-ylthiomethyl)-Δ^3-cephem-4-carboxylic acid, reference compound] | – | – | 50 µg/mL (≈ 88.2 µM) | – | 100 µg/mL (≈ 176 µM) | – | > 100 µg/mL | 50 µg/mL (≈ 88.2 µM) | > 100 µg/mL | 12.5 µg/mL (≈ 22.1 µM) | > 100 µg/mL | 3.13 µg/mL (≈ 5.52 µM) | 3.13 µg/mL (≈ 5.52 µM) | 12.5 µg/mL (≈ 22.1 µM) | > 100 µg/mL | 1.56 µg/mL (≈ 2.75 µM) | 3.13 µg/mL (≈ 5.52 µM) | – | – | – | –
CSc1nc(S)cc(SCC2=C(C(=O)O)N3C(=O)[C@@H](NC(=O)[C@H](NC(=O)c4cnccc4O)c4ccccc4)[C@H]3SC2)n1 [Example 7, 7-[D-α-(4-hydroxynicotinoylamido)-α-phenylacetamido]-3-(4-mercapto-2-methylthiopyrimidin-6-yl)thiomethyl-Δ^3-cephem-4-carboxylic acid] | – | 12.5 µg/mL (≈ 19 µM) | 12.5 µg/mL (≈ 19 µM) | 0.19 µg/mL (≈ 0.289 µM) | 25 µg/mL (≈ 38.1 µM) | 12.5 µg/mL (≈ 19 µM) | 0.78 µg/mL (≈ 1.19 µM) | 25 µg/mL (≈ 38.1 µM) | – | 0.78 µg/mL (≈ 1.19 µM) | – | 0.39 µg/mL (≈ 0.594 µM) | 0.78 µg/mL (≈ 1.19 µM) | – | 25 µg/mL (≈ 38.1 µM) | 0.78 µg/mL (≈ 1.19 µM) | 0.19 µg/mL (≈ 0.289 µM) | 0.78 µg/mL (≈ 1.19 µM) | 0.39 µg/mL (≈ 0.594 µM) | 0.39 µg/mL (≈ 0.594 µM) | MIC [1, 29]: 3.13 µg/mL (≈ 4.77 µM); MIC [14]: 12.5 µg/mL (≈ 19 µM)
O=C(O)C1=C(CSc2cc(S)ncn2)CS[C@@H]2[C@H](NC(=O)[C@H](NC(=O)c3cnccc3O)c3ccccc3)C(=O)N12 [Example 5, 7-[D-α-(4-hydroxynicotinoylamido)-α-phenylacetamido]-3-(4-mercaptopyrimidin-6-yl)thiomethyl-Δ^3-cephem-4-carboxylic acid] | 6.25 µg/mL (≈ 10.2 µM) | – | 6.25 µg/mL (≈ 10.2 µM) | – | 6.25 µg/mL (≈ 10.2 µM) | – | < 0.09 µg/mL | 3.13 µg/mL (≈ 5.13 µM) | – | 0.19 µg/mL (≈ 0.311 µM) | 25 µg/mL (≈ 40.9 µM) | 0.19 µg/mL (≈ 0.311 µM) | < 0.09 µg/mL | 3.13 µg/mL (≈ 5.13 µM) | 25 µg/mL (≈ 40.9 µM) | 3.13 µg/mL (≈ 5.13 µM) | 0.39 µg/mL (≈ 0.639 µM) | 3.13 µg/mL (≈ 5.13 µM) | 0.78 µg/mL (≈ 1.28 µM) | 0.39 µg/mL (≈ 0.639 µM) | MIC [14]: 6.25 µg/mL (≈ 10.2 µM); MIC ([5]; read-out: MIC): 0.78 µg/mL (≈ 1.28 µM)
Nc1cc(Cl)cc(SCC2=C(C(=O)O)N3C(=O)C(NC(=O)C(NC(=O)c4cccnc4)c4ccccc4)C3SC2)n1 (stereo not drawn) [Contrast, 7-(α-nicotinoylamido-α-phenylacetamido)-3-(2-amino-4-chloropyidin-6-ylthiomethyl)-Δ ^3-cephem-carboxylic acid, reference compound] | – | – | – | – | – | – | – | – | – | – | – | – | – | – | – | – | – | – | – | – | water solubility (appearance of solution by the naked eyes) ([19]; concentration 1%): clear; water solubility (appearance of solution by the naked eyes) ([19]; concentration 5%): slightly turbid; water solubility (appearance of solution by the naked eyes) ([19]; concentration 10%): turbid; water solubility (appearance of solution by the naked eyes) ([19]; concentration 20%): gelled
CC(=O)Nc1nc(S)nc(SCC2=C(C(=O)O)N3C(=O)[C@@H](NC(=O)[C@H](NC(=O)c4cnccc4O)c4ccccc4)[C@H]3SC2)n1 [Example 4, 7-[D-α-(4-hydroxynicotinoylamido)-α-phenylacetamido]-3-(4-mercapto-6-acetylamino-1,3,5-triazin-2-yl)thiomethyl-Δ^3-cephem-4-carboxylic acid] | – | – | 12.5 µg/mL (≈ 18.7 µM) | – | 12.5 µg/mL (≈ 18.7 µM) | 12.5 µg/mL (≈ 18.7 µM) | 0.39 µg/mL (≈ 0.583 µM) | 6.25 µg/mL (≈ 9.35 µM) | 50 µg/mL (≈ 74.8 µM) | 0.39 µg/mL (≈ 0.583 µM) | 50 µg/mL (≈ 74.8 µM) | 0.39 µg/mL (≈ 0.583 µM) | 0.19 µg/mL (≈ 0.284 µM) | – | 50 µg/mL (≈ 74.8 µM) | 6.25 µg/mL (≈ 9.35 µM) | 0.78 µg/mL (≈ 1.17 µM) | 6.25 µg/mL (≈ 9.35 µM) | 6.25 µg/mL (≈ 9.35 µM) | 0.78 µg/mL (≈ 1.17 µM) | MIC [1, 29]: 6.25 µg/mL (≈ 9.35 µM); MIC ([5]; read-out: MIC): 1.56 µg/mL (≈ 2.33 µM)
CC(=O)OCC1=C(C(=O)O)N2C(=O)[C@@H](NC(=O)[C@H](N)c3ccccc3)[C@H]2SC1 [Cephaloglycin, reference compound] | – | > 100 µg/mL | 3 µg/mL (≈ 7.4 µM) | – | 10 µg/mL (≈ 24.7 µM) | – | 3 µg/mL (≈ 7.4 µM) | 100 µg/mL (≈ 247 µM) | > 100 µg/mL | 100 µg/mL (≈ 247 µM) | – | 1 µg/mL (≈ 2.47 µM) | 25 µg/mL (≈ 61.7 µM) | 25 µg/mL (≈ 61.7 µM) | > 100 µg/mL | 0.3 µg/mL (≈ 0.74 µM) | 0.3 µg/mL (≈ 0.74 µM) | 3 µg/mL (≈ 7.4 µM) | 100 µg/mL (≈ 247 µM) | 3 µg/mL (≈ 7.4 µM) | MIC [1, 29]: 3 µg/mL (≈ 7.4 µM); MIC ([5]; read-out: MIC): 1 µg/mL (≈ 2.47 µM)
